# Numbering of substitutions follows the chain as printed.
# How the values were obtained:
# [1] = molecular target: T1, ASIC3 G445C (Rattus norvegicus, UniProt O35240, G445C); experiment: whole-cell patch clamp, block of pH 6-evoked currents; format: cell-based
# T1 construct: rASIC3 G445C co-expressed with wildtype ASIC3 at a 10:1 ratio in CHO-K1 cells; with wildtype ASIC3 (heteromultimeric channels)
# T1 sequence (O35240 1-533 G445C): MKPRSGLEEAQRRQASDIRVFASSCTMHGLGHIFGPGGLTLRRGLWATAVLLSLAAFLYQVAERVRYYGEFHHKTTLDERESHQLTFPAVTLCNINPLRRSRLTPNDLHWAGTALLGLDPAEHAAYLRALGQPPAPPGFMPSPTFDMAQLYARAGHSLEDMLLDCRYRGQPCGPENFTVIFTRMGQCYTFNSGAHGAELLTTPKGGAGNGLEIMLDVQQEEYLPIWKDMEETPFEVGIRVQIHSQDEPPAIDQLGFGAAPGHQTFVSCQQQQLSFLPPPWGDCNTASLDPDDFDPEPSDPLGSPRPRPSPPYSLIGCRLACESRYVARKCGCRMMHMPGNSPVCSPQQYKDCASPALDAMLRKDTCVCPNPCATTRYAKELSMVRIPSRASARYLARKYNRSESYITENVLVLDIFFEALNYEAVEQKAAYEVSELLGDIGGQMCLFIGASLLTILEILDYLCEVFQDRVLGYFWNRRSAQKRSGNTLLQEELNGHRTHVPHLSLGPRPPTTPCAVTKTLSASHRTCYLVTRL
# Excerpt: whole-cell patch clamp, block of pH 6-evoked currents on ASIC3 G445C | G445C mutation partially blunted the inhibitory action of amiloride on ASIC3 currents when compared to wildtype ASIC3 channels
# [2] = molecular target: T2, Acid-Sensing Ion Channel 3 (ASIC3) (Rattus norvegicus, UniProt O35240); experiment: as above; format: cell-based
# T2 construct: Rat ASIC3 in pMT3 vector, expressed in CHO-K1 cells
# T2 sequence (O35240 1-533): T1 sequence (O35240 1-533 G445C) with C445G
smiles,measurement,setting,value
N=C(N)NC(=O)c1nc(Cl)c(N)nc1N [amiloride],IC50,[1],17.3 µM
same,IC50,[2],18.6 µM

# Source: PMC8555766, “Paradoxical Potentiation of Acid-Sensing Ion Channel 3 (ASIC3) by Amiloride via Multiple Mechanisms and Sites Within the Channel” (Frontiers in Physiology, 2021)
